Test results published in US9096565B2, “Inhibitors of histone deacetylase” (MethylGene Inc., priority 2007, dated 2015).

Target: one or more of HDAC-4, HDAC-5, HDAC-6, HDAC-7, HDAC-8, HDAC-9, HDAC-10 and HDAC-11
Experiment: Inhibition of histone deacetylase enzymatic activity (summary statement over isoforms)
Type: biochemical
Conditions: Table 3, selected examples; HDAC isoform not given
Method in brief: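 HDAC enzyme mix with compound was preincubated 5 min at room temperature. Reaction was started at 37 °C with Boc-Lys(trifluoroacetyl)-AMC substrate and run 20-30 min. It was stopped with trypsin (1 mg/mL) plus a known HDAC inhibitor to release the fluorogenic AMC.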

**Q.** Which IC50 does the source give for `O=C(NO)C(c1ccccc1)c1ccc(-c2ccc(F)cc2)cc1` (centres unmarked) [Compound 1-45, 2-(4′-fluorobiphenyl-4-yl)-N-hydroxy-2-phenylacetamide] here?
**A.** < 1 µM

**Q.** With `O=C(NO)C(O)(c1ccccc1)c1ccccc1` [Compound 1-28, N,2-dihydroxy-2,2-diphenylacetamide] as the compound, how does the IC50 read?
**A.** < 1 µM

**Q.** Which IC50 does the source give for `O=C(NO)C(c1ccccc1)N1CCN(C(=O)c2ccccc2)CC1` (centres unmarked) [Compound 5-42, 2-(4-benzoylpiperazin-1-yl)-N-hydroxy-2-phenylacetamide] here?
**A.** 1 to 15 µM

**Q.** `O=C(NO)C(c1ccccc1)c1ccc(N2CCCC2)cc1` (centres unmarked) [Compound 1-41, N-hydroxy-2-phenyl-2-(4-(pyrrolidin-1-yl)phenyl)acetamide] was tested. Which IC50 did it give?
**A.** < 1 µM

**Q.** Which IC50 does the source give for `O=C(NO)C(c1ccccc1)c1nnc(C2c3ccccc3Oc3ccccc32)s1` (centres unmarked) [Compound 5-64, 2-(5-(9H-xanthen-9-yl)-1,3,4-thiadiazol-2-yl)-N-hydroxy-2-phenylacetamide] here?
**A.** < 1 µM

**Q.** For `O=C(NO)C(c1ccccc1)c1ccc(N2CCC2)cc1` (centres unmarked) [Compound 6-39, 2-(4-(azetidin-1-yl)phenyl)-N-hydroxy-2-phenylacetamide], which IC50 is on record?
**A.** < 1 µM

**Q.** Which IC50 does the source give for `O=C(NO)C(c1ccccc1)c1ccc(-c2ccc(Cl)cc2)cc1` (centres unmarked) [Compound 2-112, 2-(4′-chlorobiphenyl-4-yl)-N-hydroxy-2-phenylacetamide] here?
**A.** < 1 µM

**Q.** `O=C(NO)C(c1ccccc1)c1ccc(-c2ccc(F)c(F)c2)cc1` (centres unmarked) [Compound 5-49, 2-(3′,4′-difluorobiphenyl-4-yl)-N-hydroxy-2-phenylacetamide] was tested. Which IC50 did it give?
**A.** < 1 µM

**Q.** Which IC50 does the source give for `O=C(NO)C(c1ccccc1)C1CCCCC1` (centres unmarked) [Compound 1-10, 2-cyclohexyl-N-hydroxy-2-phenylacetamide] here?
**A.** < 1 µM

**Q.** Which IC50 does the source give for `CC(C)(C)c1ccc(COc2ccc(C(C(=O)NO)c3ccccc3)cc2)cc1` (centres unmarked) [Compound 3-70, 2-(4-(4-tert-butylbenzyloxy)phenyl)-N-hydroxy-2-phenylacetamide] here?
**A.** < 1 µM

**Q.** With `O=C(NO)C(Sc1cccc(O)c1)c1ccccc1` (centres unmarked) [Compound 6-38, N-hydroxy-2-(3-hydroxyphenylthio)-2-phenylacetamide] as the compound, how does the IC50 read?
**A.** 1 to 15 µM

**Q.** With `O=CN(O)C(c1ccccc1)c1ccccc1` [Compound 1-47, N-benzhydryl-N-hydroxyformamide] as the compound, how does the IC50 read?
**A.** < 1 µM

**Q.** With `COc1cccc(C(C(=O)NO)c2ccc(N3CCOCC3)cc2)c1` (centres unmarked) [Compound 5-113, N-hydroxy-2-(3-methoxyphenyl)-2-(4-morpholinophenyl)acetamide] as the compound, how does the IC50 read?
**A.** < 1 µM

**Q.** With `O=C(NO)C(c1ccccc1)N1CCN(C(=O)OCc2ccccc2)CC1` (centres unmarked) [Compound 5-61, benzyl 4-(2-(hydroxyamino)-2-oxo-1-phenylethyl)piperazine-1-carboxylate] as the compound, how does the IC50 read?
**A.** 1 to 15 µM

**Q.** With `CCCC(=O)N1CCCN(C(C(=O)NO)c2ccccc2)CC1` (centres unmarked) [Compound 2-22, 2-(4-butyryl-1,4-diazepan-1-yl)-N-hydroxy-2-phenylacetamide] as the compound, how does the IC50 read?
**A.** 1 to 15 µM

**Q.** How did the IC50 turn out when `O=C(NO)C(C(=O)Nc1cccc(C(F)(F)F)c1)c1ccccc1` (centres unmarked) [Compound 1-33, N1-hydroxy-2-phenyl-N3-(3-(trifluoromethyl)phenyl)malonamide] was run?
**A.** < 1 µM

**Q.** How did the IC50 turn out when `Cc1ccccc1OC(C(=O)NO)c1ccccc1` (centres unmarked) [Compound 7-1, N-hydroxy-2-phenyl-2-(o-tolyloxy)acetamide] was run?
**A.** 1 to 15 µM

**Q.** Which IC50 does the source give for `O=C(NO)C(c1ccccc1)c1ccc(OCCOc2ccccc2)cc1` (centres unmarked) [Compound 3-64, N-hydroxy-2-(4-(2-phenoxyethoxy)phenyl)-2-phenylacetamide] here?
**A.** < 1 µM

**Q.** Which IC50 does the source give for `CC(C)CC(=O)Nc1cccc(C(C(=O)NO)c2ccccc2)c1` (centres unmarked) [Compound 2-54, N-(3-(2-(hydroxyamino)-2-oxo-1-phenylethyl)phenyl)-3-methylbutanamide] here?
**A.** 1 to 15 µM

**Q.** `O=C(NO)C(c1ccccc1)c1cccc(OCc2cccc(C(F)(F)F)c2)c1` (centres unmarked) [Compound 3-42, N-hydroxy-2-phenyl-2-(3-(3-(trifluoromethyl)benzyloxy)phenyl)acetamide] was tested. Which IC50 did it give?
**A.** < 1 µM

**Q.** Which IC50 does the source give for `COc1ccc(OC(C(=O)NO)c2ccccc2)cc1` (centres unmarked) [Compound 7-11, N-hydroxy-2-(4-methoxyphenoxy)-2-phenylacetamide] here?
**A.** 1 to 15 µM

**Q.** With `Cc1cc(C)cc(COc2ccc(C(C(=O)NO)c3ccccc3)cc2)c1` (centres unmarked) [Compound 3-62, 2-(4-(3,5-dimethylbenzyloxy)phenyl)-N-hydroxy-2-phenylacetamide] as the compound, how does the IC50 read?
**A.** < 1 µM

**Q.** For `O=C(NO)C(c1ccc2c(c1)CCO2)c1ccc2c(c1)CCO2` [Compound 1-8, 2,2-bis(2,3-dihydrobenzofuran-5-yl)-N-hydroxyacetamide], which IC50 is on record?
**A.** < 1 µM

**Q.** How did the IC50 turn out when `O=C(NO)C(c1ccccc1)c1ccc(OC2CCN(CC3CC3)CC2)cc1` (centres unmarked) [Compound 5-130, 2-(4-(1-(cyclopropylmethyl)piperidin-4-yloxy)phenyl)-N-hydroxy-2-phenylacetamide] was run?
**A.** < 1 µM

**Q.** Which IC50 does the source give for `CCc1ccc(-c2cccc(C(C(=O)NO)c3ccccc3)c2)cc1` (centres unmarked) [Compound 2-102, 2-(4′-ethylbiphenyl-3-yl)-N-hydroxy-2-phenylacetamide] here?
**A.** < 1 µM

**Q.** `CN(C)c1ccc(C(C(=O)NO)c2ccc(-c3ccccc3)cc2)cc1` (centres unmarked) [Compound 1-40, 2-(biphenyl-4-yl)-2-(4-(dimethylamino)phenyl)-N-hydroxyacetamide] was tested. Which IC50 did it give?
**A.** < 1 µM

**Q.** `O=C(Nc1ccc(C(C(=O)NO)c2ccccc2)cc1)c1ccccc1` (centres unmarked) [Compound 2-55, N-(4-(2-(hydroxyamino)-2-oxo-1-phenylethyl)phenyl)benzamide] was tested. Which IC50 did it give?
**A.** < 1 µM

**Q.** Which IC50 does the source give for `COc1cccc(COc2ccc(C(C(=O)NO)c3ccccc3)cc2)c1` (centres unmarked) [Compound 2-14, N-hydroxy-2-(4-(3-methoxybenzyloxy)phenyl)-2-phenylacetamide] here?
**A.** < 1 µM

**Q.** Which IC50 does the source give for `C=CCCOc1ccc(C(C(=O)NO)c2ccccc2)cc1` (centres unmarked) [Compound 3-49, 2-(4-(but-3-enyloxy)phenyl)-N-hydroxy-2-phenylacetamide] here?
**A.** < 1 µM

**Q.** With `CCCC(=O)N1CCN(C(C(=O)NO)c2ccccc2)CC1` (centres unmarked) [Compound 2-23, 2-(4-butyrylpiperazin-1-yl)-N-hydroxy-2-phenylacetamide] as the compound, how does the IC50 read?
**A.** 1 to 15 µM

**Q.** With `O=C(NO)C(c1ccccc1)c1ccc(NS(=O)(=O)c2ccc(Cl)cc2)cc1` (centres unmarked) [Compound 2-92, 2-(4-(4-chlorophenylsulfonamido)phenyl)-N-hydroxy-2-phenylacetamide] as the compound, how does the IC50 read?
**A.** < 1 µM

**Q.** With `O=C(NO)C(Oc1ccccc1)c1ccccc1` (centres unmarked) [Compound 1-2, N-hydroxy-2-phenoxy-2-phenylacetamide] as the compound, how does the IC50 read?
**A.** < 1 µM

**Q.** Which IC50 does the source give for `O=C(NO)C(Oc1ccccc1F)c1ccccc1` (centres unmarked) [Compound 7-5, 2-(2-fluorophenoxy)-N-hydroxy-2-phenylacetamide] here?
**A.** 1 to 15 µM

**Q.** For `O=C(NO)C(Sc1ccc(C(F)(F)F)cn1)c1ccccc1` (centres unmarked) [Compound 2-47, N-hydroxy-2-phenyl-2-(5-(trifluoromethyl)pyridin-2-ylthio)acetamide], which IC50 is on record?
**A.** 1 to 15 µM

**Q.** With `O=C(NO)C(Sc1ccccc1)c1ccccc1` (centres unmarked) [Compound 1-12, N-hydroxy-2-phenyl-2-(phenylthio)acetamide] as the compound, how does the IC50 read?
**A.** < 1 µM

**Q.** With `O=C(NO)C(c1ccccc1)N1CCN(c2ncccn2)CC1` (centres unmarked) [Compound 1-36, N-hydroxy-2-phenyl-2-(4-(pyrimidin-2-yl)piperazin-1-yl)acetamide] as the compound, how does the IC50 read?
**A.** < 1 µM

**Q.** How did the IC50 turn out when `COc1ccccc1COc1ccc(C(C(=O)NO)c2ccccc2)cc1` (centres unmarked) [Compound 5-109, N-hydroxy-2-(4-(2-methoxybenzyloxy)phenyl)-2-phenylacetamide] was run?
**A.** < 1 µM

**Q.** Which IC50 does the source give for `Cc1ccsc1C(=O)Nc1cccc(C(C(=O)NO)c2ccccc2)c1` (centres unmarked) [Compound 2-66, N-(3-(2-(hydroxyamino)-2-oxo-1-phenylethyl)phenyl)-3-methylthiophene-2-carboxamide] here?
**A.** 1 to 15 µM

**Q.** How did the IC50 turn out when `O=C(NO)C(Sc1ccncc1)c1ccccc1` (centres unmarked) [Compound 2-45, N-hydroxy-2-phenyl-2-(pyridin-4-ylthio)acetamide] was run?
**A.** 1 to 15 µM

**Q.** `O=C(NO)C(c1ccccc1)c1cccc(-c2ccccc2)c1` (centres unmarked) [Compound 5-29, 2-(biphenyl-3-yl)-N-hydroxy-2-phenylacetamide] was tested. Which IC50 did it give?
**A.** < 1 µM

**Q.** How did the IC50 turn out when `O=C(NO)C(c1ccc(N2CCCC2)cc1)c1ccc2c(c1)CCO2` (centres unmarked) [Compound 5-69, 2-(2,3-dihydrobenzofuran-5-yl)-N-hydroxy-2-(4-(pyrrolidin-1-yl)phenyl)acetamide] was run?
**A.** < 1 µM

**Q.** With `O=C(NO)C(c1ccccc1)c1ccc(OC/C=C/c2ccccc2)cc1` (centres unmarked) [Compound 3-85, (E)-2-(4-(cinnamyloxy)phenyl)-N-hydroxy-2-phenylacetamide] as the compound, how does the IC50 read?
**A.** < 1 µM

**Q.** For `O=C(NO)C(c1ccccc1)c1cccc(NS(=O)(=O)c2ccccc2)c1` (centres unmarked) [Compound 2-89, N-hydroxy-2-phenyl-2-(3-(phenylsulfonamido)phenyl)acetamide], which IC50 is on record?
**A.** 1 to 15 µM

**Q.** For `O=C(NO)C(c1ccccc1)N1CCN(c2ccc(C(F)(F)F)cc2)CC1` (centres unmarked) [Compound 5-43, N-hydroxy-2-phenyl-2-(4-(4-(trifluoromethyl)phenyl)piperazin-1-yl)acetamide], which IC50 is on record?
**A.** < 1 µM

**Q.** For `CN(C)CCCOc1ccc(C(C(=O)NO)c2ccccc2)cc1` (centres unmarked) [Compound 3-16, 2-(4-(3-(dimethylamino)propoxy)phenyl)-N-hydroxy-2-phenylacetamide], which IC50 is on record?
**A.** < 1 µM

**Q.** For `O=C(NO)C(c1ccccc1)c1ccc(CCCCc2ccccc2)cc1` (centres unmarked) [Compound 5-68, N-hydroxy-2-phenyl-2-(4-(4-phenylbutyl)phenyl)acetamide], which IC50 is on record?
**A.** < 1 µM

**Q.** For `O=C(NO)C(c1ccccc1)c1cccc(C#Cc2cccnc2)c1` (centres unmarked) [Compound 2-95, N-hydroxy-2-phenyl-2-(3-(pyridin-3-ylethynyl)phenyl)acetamide], which IC50 is on record?
**A.** < 1 µM

**Q.** With `O=C(NO)C(c1ccccc1)c1cccc(-c2ccccc2C(F)(F)F)c1` (centres unmarked) [Compound 2-108, N-hydroxy-2-phenyl-2-(2′-(trifluoromethyl)biphenyl-3-yl)acetamide] as the compound, how does the IC50 read?
**A.** < 1 µM

**Q.** How did the IC50 turn out when `COCCOc1ccc(C(C(=O)NO)c2ccccc2)cc1` (centres unmarked) [Compound 3-50, N-hydroxy-2-(4-(2-methoxyethoxy)phenyl)-2-phenylacetamide] was run?
**A.** < 1 µM

**Q.** With `O=C(NO)C(Sc1ccnc2cc(C(F)(F)F)ccc12)c1ccccc1` (centres unmarked) [Compound 2-49, N-hydroxy-2-phenyl-2-(7-(trifluoromethyl)quinolin-4-ylthio)acetamide] as the compound, how does the IC50 read?
**A.** < 1 µM
